From article PMC6982876, “Synthesis of Novel Benzodifuranyl; 1,3,5-Triazines; 1,3,5-Oxadiazepines; and Thiazolopyrimidines Derived from Visnaginone and Khellinone as Anti-Inflammatory and Analgesic Agents” (Molecules, 2020)
Marks after values point to notes of the source that are not given here.

Key:
[1] = molecular target: T1, ovine COX-1 (Ovis aries, UniProt P05979); assay: In vitro COX inhibitor screening assay (EIA kit, Cayman), COX-1; format: biochemical; conditions: mean of two determinations, enzyme kit, read-out: COX1 IC50
T1 construct: purchased Cayman Chemical, Ann Arbor, MI, USA 560131
T1 sequence (P05979 25-600): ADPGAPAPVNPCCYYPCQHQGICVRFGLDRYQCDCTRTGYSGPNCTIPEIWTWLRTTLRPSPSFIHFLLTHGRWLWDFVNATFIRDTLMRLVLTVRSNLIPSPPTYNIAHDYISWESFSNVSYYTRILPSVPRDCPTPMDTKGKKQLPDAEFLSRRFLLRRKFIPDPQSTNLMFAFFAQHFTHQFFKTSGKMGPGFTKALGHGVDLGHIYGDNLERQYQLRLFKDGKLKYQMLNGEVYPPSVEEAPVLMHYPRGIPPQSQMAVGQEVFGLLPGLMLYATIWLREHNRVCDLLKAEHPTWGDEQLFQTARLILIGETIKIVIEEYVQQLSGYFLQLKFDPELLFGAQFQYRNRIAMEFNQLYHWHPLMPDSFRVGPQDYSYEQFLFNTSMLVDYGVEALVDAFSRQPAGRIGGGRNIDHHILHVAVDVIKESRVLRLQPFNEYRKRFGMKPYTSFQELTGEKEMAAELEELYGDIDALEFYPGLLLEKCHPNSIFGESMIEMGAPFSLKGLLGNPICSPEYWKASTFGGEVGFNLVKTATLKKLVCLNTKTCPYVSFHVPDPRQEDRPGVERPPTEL
Procedure: (§1) Furthermore, the selectivity index for COX-2 (COX-1 IC50 / COX-2 IC50) was calculated for the compounds.

[2] = molecular target: T2, human recombinant COX-2 (Homo sapiens, UniProt P35354); assay: In vitro COX inhibitor screening assay (EIA kit, Cayman), COX-2; format: biochemical; conditions: for COX2 (SI) selectivity index: COX-1 IC50 / COX-2 IC50; for IC50: COX-2, mean of two determinations, enzyme kit, read-out: COX2 IC50
T2 construct: purchased Cayman Chemical, Ann Arbor, MI, USA 560131
T2 sequence (P35354 18-604): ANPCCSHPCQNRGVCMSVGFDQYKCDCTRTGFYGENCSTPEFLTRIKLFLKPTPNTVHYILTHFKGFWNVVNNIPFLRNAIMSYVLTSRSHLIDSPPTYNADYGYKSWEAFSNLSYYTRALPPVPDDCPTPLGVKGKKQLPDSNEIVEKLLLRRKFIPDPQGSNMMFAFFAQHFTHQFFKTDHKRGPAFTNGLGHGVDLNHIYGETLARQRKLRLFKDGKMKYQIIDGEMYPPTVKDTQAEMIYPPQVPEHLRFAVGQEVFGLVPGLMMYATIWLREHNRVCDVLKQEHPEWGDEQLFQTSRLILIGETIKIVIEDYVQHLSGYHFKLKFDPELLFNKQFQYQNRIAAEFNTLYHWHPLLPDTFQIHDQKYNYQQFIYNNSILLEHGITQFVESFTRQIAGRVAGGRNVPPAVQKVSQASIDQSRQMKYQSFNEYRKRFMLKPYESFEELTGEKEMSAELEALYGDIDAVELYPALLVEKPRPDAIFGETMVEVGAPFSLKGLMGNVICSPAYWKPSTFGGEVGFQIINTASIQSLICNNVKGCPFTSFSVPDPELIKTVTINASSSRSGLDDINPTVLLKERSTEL
Procedure: as §1

[3] = system: acetic acid-induced writhing in mice; assay: Acetic acid-induced writhing test (analgesic activity); format: in vivo; conditions: 10 mg/kg p.o., n = 5; for Writhing Number in 20 min (Mean ± SEM): acetic acid 1 h after dosing; for Analgesic Activity (% protection): writhing test
Procedure: The analgesic activity of the compounds was performed using the writhing test as described by Gawade et al.. Mice weight ranged from 25 to 30 g. Then, mice were divided into 18 different groups, each containing five animals. The animals fasted for 8 h before the experiment. Administration of the compounds (10 mg/kg, p.o.) was performed orally. Equal doses of diclofenac as the reference drug and saline as a negative control were also administrated orally. Writhing was induced one hour after compound administration by using 0.1 mL of 1% glacial acetic acid at a volume of 0.1 mL/10 g body weight. The number of writhing responses (stretching of the abdomen, extension of hind limbs, twisting of the trunk, and elongation of the body) observed was counted for 20 min. The protection percentile against acetic acid-induced writhing was calculated according to the following formula: (1) Analgesic activity (%) =n−n′/n×100* where n is the mean number of writhes of the control group, and n’ is the mean number of writhes of the tested compound group.

[4] = system: carrageenan-induced paw edema in rats; assay: Carrageenan-induced paw edema (anti-inflammatory activity); format: in vivo; conditions: 10 mg/kg oral; for % Change in Paw Height (Mean ± SEM): n = 5
Procedure: Albino rats (150–180 g) were used. The rats were divided into 11 experimental groups of five rats each. One hour after oral administration of the compounds (10 mg/kg), 0.1 mL of 1% carrageenan solution was injected in the left hind paw of each animal. Rat paw volumes were measured with a digital caliber plethysmometer (UGO Basile, Varese, Italy) used to measure inflammation height at 0, 1, 2, and 3 h after carrageenan injection. The percentage increase in inflammation in the left hind paw, in comparison to the uninjected right hind paw, was determined, calculated, and expressed as the amount of inflammation. […] The anti-inflammatory activity of the selected analgesic compounds after 3 h was expressed as percentage inhibition of edema, which was calculated according to the following equation: (2) Inhibition of edema (%) =Vcont−Vtest/Vcont×100* where V cont is the edema volume in the control group, and V test is the edema volume in the group of the screened compound.

[5] = system: interleukin-1 beta (IL-1 β); assay: ELISA of serum interleukin-1 beta after paw edema test; format: in vivo, rats; conditions: rat serum at the end of the paw edema test, mean ± SEM, n = 5
Procedure: IL1 is one of the important inflammatory mediators and is used to confirm the anti-inflammatory activities of new anti-inflammatory compounds. At the end of the paw edema test, blood samples were collected from the orbital axis of the eye under light ether anesthesia. Sera were separated after centrifugation of blood at 5000 rpm for 15 min; the sera were stored at –80 °C until the ELISA assay was performed according to the manufacturer instructions.

IC50 [1]	COX2 (SI) selectivity index [2]	IC50 [2]	melting point	SMILES	Writhing Number in 20 min (Mean ± SEM) [3]	Analgesic Activity (% protection) [3]	% Change in Paw Height (Mean ± SEM) ([4]; 1 hr after carrageenan)	% Change in Paw Height (Mean ± SEM) ([4]; 2 hr after carrageenan)	Anti-Inflammatory Activity (% Inhibition of Edema) ([4]; 3 hr after carrageenan)	% Change in Paw Height (Mean ± SEM) ([4]; 3 hr after carrageenan)	IL-1 β Concentration [5]
6850 nM	81	85 nM	> 350 °C	COc1c2ccoc2cc2oc(C3=NC4=CC(=O)N5C(=O)CSC5N4C=N3)c(C)c12 (centres unmarked) [Compound 11a, 8-(4-methoxy-3-methylbenzo[1,2-b:5,4-b`]difuran-2-yl)-2-hydro-5H,11aH-thiazolo[2’,3’: 2,3]pyrimido[1,6-a][1,3,5]triazine-3,5-dione]	39 ± 2.1 ^a	36 ± 0.75 ^a %	0.30 ± 0.02 ^a %	0.24 ± 0.01 ^a %	55%	0.28 ± 0.01 ^a %	43 ± 1.15 ^b Pg /mL
5450 nM	94	58 nM	> 350 °C	COc1ccc(C=C2OC(c3oc4c(OC)c5occc5c(OC)c4c3C)=NC3=CC(=O)N4C(=O)C(=Cc5ccc(OC)cc5)SC4N3C2=O)cc1 (centres unmarked) [Compound 13f, 8-(4,8-dimethoxy-3-methylbenzo[1,2-b:5,4-b`]difuran-2-yl)-2,10-bis(4-methoxybenzylidene)-5H,12aH-thiazolo[2’,3’:2,3]pyrimido[6,1-d][1,3,5]oxadiazepine-3,5,11(2H,10H)-trione]	30 ± 1.8 ^a	45 ± 0.95 ^a %	0.24 ± 0.02 ^a %	0.18 ± 0.02 ^a %	62%	0.21 ± 0.01 ^a %	36 ± 0.25 ^b Pg /mL
5100 nM	96	53 nM	> 350 °C	COc1c2occc2c(OC)c2c(C)c(C3=NC4=CC(=O)N5C(=O)C(=Cc6ccc(Cl)cc6)SC5N4C(=O)C(=Cc4ccc(Cl)cc4)O3)oc12 (centres unmarked) [Compound 13e, 2,10-bis(4-chlorobenzylidene)-8-(4,8-dimethoxy-3-methylbenzo[1,2-b:5,4-b`]difuran-2-yl)-5H,12aH-thiazolo[2’,3’:2,3]pyrimido[6,1-d][1,3,5]oxadiazepine-3,5,11(2H,10H)-trione]	28 ± 1.3 ^a	47 ± 1.7 ^a %	0.22 ± 0.01 ^a %	0.17 ± 0.02 ^a %	64%	0.19 ± 0.02 ^a %	34 ± 0.33 ^b Pg /mL
6400 nM	85	75 nM	> 350 °C	COc1c2ccoc2cc2oc(C3=NC4=CC(=O)N5C(=O)CSC5N4C(=O)CO3)c(C)c12 (centres unmarked) [Compound 12a, 8-(4-methoxy-3-methylbenzo[1,2-b:5,4-b`]difuran-2-yl)-5H,12aH-thiazolo[2’,3’:2,3] pyrimido[6,1-d][1,3,5]oxadiazepine-3,5,11(2H,10H)-trione]	35 ± 1.2 ^a	40 ± 1.50 ^a %	0.28 ± 0.02 ^a %	0.23 ± 0.01 ^a %	57%	0.26 ± 0.01 ^a %	41 ± 0.85 ^b Pg /mL
